Our source for the melting point values is the Bradley open melting point set (2014).

Several values for one entry are separate records, joined by “and”; a condition that tells them apart may be missing. Identical values can stand only once.

For `CCOC(C)(C)C` [tert-butyl ethyl ether], the melting point is -94 °C.
Under `Cc1cc(C)c(C(=O)O)c(C)c1` [2,4,6-trimethylbenzoic acid] stands 154 °C; under `COC(=O)c1cc2ccccc2cn1` [methyl isoquinoline-3-carboxylate], 86 °C; under `CN1C(C(=O)Nc2ccccn2)=C(O)c2sccc2S1(=O)=O` [tenoxicam], 211 °C.
`COC(=O)c1ccc(C#N)cc1` [methyl_4-cyanobenzoate] yielded a melting point of 62 °C.
Under `Cc1nnc2n1-c1ccc(Cl)cc1C(c1ccccc1Cl)=NC2` [Triazolam] stands 234 °C.
`ClCCl` [dichloromethane] showed a melting point of -95 °C.
The molecule `[O-][I+3]([O-])([O-])O` [periodic acid] registered a melting point of 128 °C.
Under `O=[N+]([O-])c1ccc(N2CCOCC2)cc1` [4-(4-nitrophenyl)morpholine] stands 150 °C; under `COc1cc(/C=C/C(=O)O)cc(OC)c1O` [sinapic acid], 195 °C.
Under `N#CCCCCC#N` [1,4-dicyanobutane] stands 2 °C.
Under `CCOC(N)=O` [ethyl carbamate] stands 49 °C; under `O=C1C=C(NCCNc2ccccc2)C(=O)c2ccccc21` [2-{[2-(phenylamino)ethyl]amino}naphthalene-1,4-dione], 141 °C; under `CC(C)(C)NCC(O)c1cc(O)cc(O)c1` (centres undefined) [Terbutaline], 120 °C.
Take `Cc1cc(CC(=O)O)ccc1F` [4-fluoro-3-methylphenylacetic acid]: the melting point was determined as 106 °C.
Then `[C-]#[N+]CS(=O)(=O)c1ccc(C)cc1` [p-toluenesulfonylmethyl isocyanide], with 112 °C.
Under `Cc1ccc(S(=O)(=O)OI(O)c2ccccc2)cc1` [hydroxy(tosyloxy)iodobenzene] stands 134 °C; under `O=Cc1ccc([N+](=O)[O-])cc1` [p-nitrobenzaldehyde], 108 °C; under `[2H]OC(=O)C([2H])([2H])[2H]` [(~2~H_4_)Acetic acid], 15.5 °C.
As to `N#CCc1ccccc1O` [o-hydroxy_phenylacetonitrile], the melting point turned out to be 122 °C.
Under `COc1ccc2c(c1)no[n+]2[O-]` [5-Methoxybenzofurazan, 1-oxide] stands 118 °C; under `CN(C)C(=S)NN` [4,4-dimethyl-3-thiosemicarbazide], 145 °C.
In turn, `Cc1cc(C=O)c(C)n1-c1ccccn1` [OSM-S-44] registered a melting point of 62.5 °C.
In turn, `N#Cc1ccc2c(c1)N(CCCN1CCC(O)CC1)c1ccccc1S2` [Propericiazine (JAN)] yielded a melting point of 82 °C.
Under `Nc1cc(Cl)c(O)c(Cl)c1` [4-Amino-2,6-dichlorophenol] stands 168 °C; under `CCCCCCCCP(=O)(CCCCCCCC)CCCCCCCC` [tri-n-octylphosphine oxide], 55 °C.
Then `NNC(=O)c1ccncc1` [isonicotinic acid hydrazide], with 172 °C; and `N#CCS(=O)(=O)c1ccc(F)cc1` [4-fluorophenylsulfonylacetonitrile], with 91 °C.
`O=[N+]([O-])c1ccc(O)cc1` [p-nitrophenol] returned a melting point of 115 °C.
Then `CCCCCCCCN(C)C` [N,N-dimethyl-n-octylamine], with -57 °C; and `NNC(=O)c1ccncc1` [isoniazid], with 171 °C; and `COc1cc(C(=O)c2ccc(-c3ccccc3)cc2)c([N+](=O)[O-])cc1OC` [biphenyl-4-yl(4,5-dimethoxy-2-nitrophenyl)methanone], with 145 °C.
Under `O=C(O)c1cc(/N=N/c2ccc(S(=O)(=O)Nc3ccccn3)cc2)ccc1O` [Sulfasalazine] stands 220 °C.
Regarding `O=C(O)C1COc2ccccc2O1` (centres undefined) [1,4-benzodioxane-2-carboxylic acid], the melting point is 124 °C.
Regarding `OC1CCCCC1` [cyclohexanol], the melting point was 21 °C.
Under `CC1(C)[C@@H]2CC[C@@]1(C)[C@@H](O)C2` [borneol] stands 207 °C.
Then `Nc1cccc(O)c1` [3-Aminophenol], with 125 °C; and `COc1ccc([C@@H]2Sc3ccccc3N(CCN(C)C)C(=O)[C@@H]2OC(C)=O)cc1` [Diltiazem], with 231 °C; and `CC12CCC(C(=CC=C3C(=O)C4(C)CCC3C4(C)C)C1=O)C2(C)C`, with 240 °C.
Under `O=C(O)/C=C/c1ccc(B(O)O)cc1` [4-(2-carboxyvinyl)benzeneboronic acid] stands 193 °C.
Molecule `N#Cc1c(F)ccc([N+](=O)[O-])c1F` [2,6-difluoro-3-nitrobenzonitrile] came in with a melting point of 53 °C.
Molecule `Nc1cccc(Cl)c1Cl` [2,3-dichloroaniline] had a melting point of 24 °C.
Then `CC(C)(C)OC(=O)N1CCC[C@@H]1C(=O)O` [N-boc-D-proline], with 134 °C; and `CCCC(=O)c1cc2cc(Br)ccc2oc1=O` [6-bromo-3-butyrylcoumarin], with 164 °C; and `CCS` [ethanethiol], with -148 °C.
Then `O=C(c1ccccc1)c1ccc(C(F)(F)F)cc1` [4-(trifluoromethyl)benzophenone], with 118 °C; and `CCC[C@H]1CCC[C@@H]1C` (relative stereo) [trans-1-methyl-2-propylcyclopentane], with -123 °C.
Then `c1ccc(CCc2ccccc2)cc1` [Bibenzyl], with 52 °C.
Take `C/C(C)=CCN2CC[C@@]1(C)c3cc(O)ccc3C[C@@H]2[C@@H]1C` [pentazocin]: the melting point is 146 °C.
Under `O=C(O)C(O)c1ccccc1Cl` (centres undefined) [2-chloromandelic acid] stands 83 °C; under `CC/C=C/CC` [trans-3-hexene], -113 °C.
Then `O=C(c1ccccc1)N(O)c1ccccc1` [N-benzoyl-N-phenylhydroxylamine], with 119 °C; and `C[C@H]1C[C@H]2[C@@H]3CCC4=CC(=O)C=C[C@]4(C)[C@@]3(Cl)[C@@H](O)C[C@]2(C)[C@@]1(O)C(=O)CO` [Beclomethasone], with 118 °C.
Under `Cc1c(C)c(C)c(C)c(C)c1C` [hexamethylbenzene] stands 165 °C.
`CS(C)=O` [dimethyl_sulfoxide]: the melting point is 18 °C.
Then `CCN(CC)C(=S)SSC(=S)N(CC)CC` [disulfiram], with 70 °C; and `CCCc1ccccc1` [Propylbenzene], with -99 °C; and `CCCCOC(=O)c1ccccc1` [butyl_benzoate], with -12 °C.
Then `N#Cc1ccc(N)cc1` [4-aminobenzonitrile], with 85 °C; and `C1=CC=CC=CC=C1` [Cycloocta-1,3,5,7-tetraene], with -27 °C; and `CC[C@H](C)C(=O)O[C@H]1C[C@@H](C)C=C2C=C[C@H](C)[C@H](CC[C@@H]3C[C@@H](O)CC(=O)O3)[C@H]21` [Lovastatin], with 174 °C.
As to `O=C[C@H](O)[C@H](O)[C@@H](O)CO` [L-lyxose], the melting point is 110 °C.
Molecule `CCc1ccc(O)cc1` [4-ethylphenol] displayed a melting point of 47 °C.
In turn, `c1ccc(-c2ccc(-c3ccccc3)cc2)cc1` [1,1':4',1''-Terphenyl] yielded a melting point of 213 °C.
Under `CC(=O)OCC(COC(C)=O)OC(C)=O` [triacetin] stands 3 °C; under `COc1cc(Cl)ccc1O` [4-chloro-2-methoxyphenol], 17 °C; under `Cc1cc(C)c(Br)cc1C` [5-bromo-1,2,4-trimethylbenzene], 72 °C.
Under `Oc1cccc(Cl)c1Cl` [2,3-dichlorophenol] stands 59 °C; under `Cc1cccc2c1Cc1ccccc1-2` [1-methylfluorene], 85 °C.
The molecule `CC(=O)Cl` [Acetyl chloride] gave a melting point of -112 °C.
On to `O=C(O)C1CC2=C3C=CCC=C3N=C2CN1` (stereo not drawn) [2,3,4,9-tetrahydro-1H-beta-carboline-3-carboxylic acid], for which the melting point worked out at 296 °C.
In turn, `CCN(CC)CC` [N,N-Diethylethanamine] showed a melting point of -115 °C.
For the molecule `FC(F)(F)C(F)(F)F` [Hexafluoroethane], the melting point was -100 °C.
Take `Nc1ccc(Br)c(Cl)c1` [4-bromo-3-chloroaniline]: the melting point was 64 °C.
`Brc1cccc2cc[nH]c12` [7-bromoindole] registered a melting point of 43 °C.
As to `c1ccc(COc2cccc(-c3nnn[nH]3)c2)cc1` [5-(3-benzyloxyphenyl)-1h-tetrazole], the melting point was found to be 209 °C.
Molecule `COc1cc(Cl)c(Cl)c(Cl)c1Cl` [1-methoxy-2,3,4,5-tetrachlorobenzene] gave a melting point of 88 °C.
Then `CCC#N` [propionitrile], with -93 °C and -92 °C; and `CC(=O)N(Nc1ccccc1/N=N/c1ccccc1)c1ccccc1` [N-phenyl-N'-{2-[(E)-phenyldiazenyl]phenyl}acetohydrazide], with 103 °C; and `O=C(O)c1cc[n+]([O-])cc1` [isonicotinic acid n-oxide], with 270 °C.
Under `CC(C)(S)[C@@H](N)C(=O)O` [penicillamine] stands 204 °C; under `c1ccc(-c2csc(-c3ccccn3)n2)cc1` [4-phenyl-2-(2-pyridyl)thiazole], 57 °C.
As to `COc1ccc2c(c1)c1c3n2CCN(C)C3=NCC1` [metralindole], the melting point is 164 °C.
Then `CCCCCC(C)=O` [2-heptanone], with -35 °C; and `CC(C)(C)NCC(O)c1ccc(O)c(CO)c1` (centres undefined) [Salbutamol], with 158 °C.
As for `O=C(O)c1cc(=O)[nH]c(=O)[nH]1` [orotic acid, anhydrous], the melting point is 346 °C.
Then `C[C@]12C=CC(=O)C=C1CC[C@@H]1[C@@H]2C(=O)C[C@@]2(C)[C@H]1CC[C@]2(O)C(=O)CO` [Prednisone], with 234 °C.
As for `Cc1n[nH]c(=O)[nH]c1=O` [6-azathymine], the melting point stood at 213 °C.
Under `Cc1ccc(-c2cc(C(F)(F)F)nn2-c2ccc(S(N)(=O)=O)cc2)cc1` [celecoxib] stands 158 °C.

In general, melting point refers to the temperature, or range, at which the solid turns liquid.
